A short description of series [1]: log P by HPLC on reversed-phase column (C 18), EEC Directive 79/831 Annex V.A8. The series is classed as physicochemical. As to conditions: HPLC on reversed-phase column (C 18), 40° C., 0.1% aqueous formic acid and acetonitrile, linear gradient 10% to 90% acetonitrile. A digest of the protocol: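 Compounds are eluted at 40° C using 0.1% aqueous formic acid and acetonitrile in a linear gradient from 10% to 90% acetonitrile. Unbranched alkan-2-ones bearing 3 to 16 carbons with known log P serve as calibrants. Each log P is interpolated linearly from retention times of the two bracketing alkanones.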

Series [2] has as its system Uromyces appendiculatus. The experiment in a line: In vivo preventive test on Uromyces appendiculatus (bean rust). Conditions: 100 ppm of active ingredient, evaluated 10 days after inoculation. How it is done: (§1) Solvent: 24.5 parts by weight of acetone • 24.5 parts by weight of N,N-dimethylacetamide Emulsifier: 1 part by weight of alkylaryl polyglycol ether To produce a suitable preparation of active compound, 1 part by weight of active compound is mixed with the stated amounts of solvent and emulsifier, and the concentrate is diluted with water to the desired concentration. To test for preventive activity, young plants are sprayed with the preparation of active compound at the stated rate of application. After the spray coating has dried on, the plants are inoculated with an aqueous spore suspension of the causal agent of bean rust (Uromyces appendiculatus) and then remain for 1 day in an incubation cabinet at approximately 20° C. and a relative atmospheric humidity of 100%. The plants are then placed in a greenhouse at approximately 21° C. and a relative atmospheric humidity of approximately 90%. The test is evaluated 10 days after the inoculation. 0% means an efficacy which corresponds to that of the untreated control, while an efficacy of 100% means that no disease is observed.

Series [3] relates to Phakopsora pachyrhizi. Kind of series: In vivo protective test on Phakopsora pachyrhizi (soybeans). As to conditions: 250 ppm of active ingredient, evaluated 11 days after inoculation.
For series [4], the system named is Pyrenophora teres. The experiment in a line: In vivo preventive test on Pyrenophora teres (barley). Conditions: 500 ppm of active ingredient, evaluated 7-9 days after inoculation. A digest of the protocol: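 Young barley plants sprayed with compound in DMF/alkylaryl polyglycol ether emulsion; inoculated with P. teres spores one day later. 48 h at 22 °C, 100% humidity, then greenhouse ~20 °C, ~80% humidity; efficacy scored 7-9 days post-inoculation, 0% = untreated, 100% = no disease.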

Series [5] concerns Venturia inaequalis. Kind of series: In vivo preventive test on Venturia inaequalis (apple scab). As to conditions: 100 ppm of active ingredient, evaluated 10 days after inoculation. How it is done:
as §1, with “conidia” for “spore”, “apple scab (Venturia inaequalis)” for “bean rust (Uromyces appendiculatus)”

For series [6], the system named is Alternaria solani. Kind of series: In vivo preventive test on Alternaria solani (tomato). Conditions: 500 ppm of active ingredient, evaluated 7 days after inoculation. Summed up:
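Young tomato plants were sprayed preventively with compound in DMF/alkylarylpolyglycolether diluted in water, then inoculated one day later with A. solani spores. Incubation was 1 day at about 22 °C and 100% RH, then about 20 °C and 96% RH. Efficacy was scored 7 days after inoculation (0% = untreated control, 100% = no disease).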

For series [7], the system named is Septoria tritici. The experiment in a line: In vivo preventive test on Septoria tritici (wheat). Conditions: 500 ppm of active ingredient, evaluated 21 days after inoculation. How it is done:
(§2) Solvent: 49 parts by weight of N,N-dimethylacetamide Emulsifier: 1 part by weight of alkylaryl polyglycol ether To produce a suitable preparation of active compound, 1 part by weight of active compound or active compound combination is mixed with the stated amounts of solvent and emulsifier, and the concentrate is diluted with water to the desired concentration. To test for preventive activity, young plants are sprayed with the preparation of active compound or active compound combination at the stated rate of application. After the spray coating has been dried, the plants are sprayed with a spore suspension of Septoria tritici. The plants remain for 48 hours in an incubation cabinet at approximately 20° C. and a relative atmospheric humidity of approximately 100% and afterwards for 60 hours at approximately 15° C. in a translucent incubation cabinet at a relative atmospheric humidity of approximately 100%. The plants are placed in the greenhouse at a temperature of approximately 15° C. and a relative atmospheric humidity of approximately 80%. The test is evaluated 21 days after the inoculation. 0% means an efficacy which corresponds to that of the untreated control, while an efficacy of 100% means that no disease is observed.

In series [8] the test system is Sphaerotheca fuliginea. The experiment in a line: In vivo preventive test on Sphaerotheca fuliginea (cucumber). Conditions: 500 ppm of active ingredient, evaluated 7 days after inoculation. How it is done: Solvent: 49 parts by weight of N,N-dimethylformamide Emulsifier: 1 part by weight of Alkylarylpolyglycolether To produce a suitable preparation of active compound, 1 part by weight of active compound is mixed with the stated amounts of solvent and emulsifier, and the concentrate is diluted with water to the desired concentration. To test for preventive activity, young plants are sprayed with the preparation of active compound at the stated rate of application. One day after this treatment, the plants are inoculated with an aqueous spore suspension of Sphaerotheca fuliginea. Then the plants are placed in a greenhouse at approximately 23° C. and a relative atmospheric humidity of approximately 70%. The test is evaluated 7 days after the inoculation. 0% means an efficacy which corresponds to that of the untreated control, while an efficacy of 100% means that no disease is observed.

The test system of series [9] is Blumeria graminis f. sp. hordei. The experiment in a line: In vivo preventive test on Blumeria graminis (barley). Conditions: 500 ppm of active ingredient, evaluated 7 days after inoculation. How it is done: Solvent: 49 parts by weight of N,N-dimethylacetamide Emulsifier: 1 part by weight of alkylaryl polyglycol ether To produce a suitable preparation of active compound, 1 part by weight of active compound or active compound combination is mixed with the stated amounts of solvent and emulsifier, and the concentrate is diluted with water to the desired concentration. To test for preventive activity, young plants are sprayed with the preparation of active compound or active compound combination at the stated rate of application. After the spray coating has been dried, the plants are dusted with spores of Blumeria graminis f. sp. hordei. The plants are placed in the greenhouse at a temperature of approximately 18° C. and a relative atmospheric humidity of approximately 80% to promote the development of mildew pustules. The test is evaluated 7 days after the inoculation. 0% means an efficacy which corresponds to that of the untreated control, while an efficacy of 100% means that no disease is observed.

Series [10] concerns Fusarium nivale (var. majus). The experiment in a line: In vivo preventive test on Fusarium nivale (wheat). As to conditions: 500 ppm of active ingredient, evaluated 5 days after inoculation. How it is done:
Solvent: 49 parts by weight of N,N-dimethylacetamide Emulsifier: 1 part by weight of alkylaryl polyglycol ether To produce a suitable preparation of active compound, 1 part by weight of active compound or active compound combination is mixed with the stated amounts of solvent and emulsifier, and the concentrate is diluted with water to the desired concentration. To test for preventive activity, young plants are sprayed with the preparation of active compound or active compound combination at the stated rate of application. After the spray coating has been dried, the plants are slightly injured by using a sandblast and afterwards they are sprayed with a conidia suspension of Fusarium nivale (var. majus). The plants are placed in the greenhouse under a translucent incubation cabinet at a temperature of approximately 10° C. and a relative atmospheric humidity of approximately 100%. The test is evaluated 5 days after the inoculation. 0% means an efficacy which corresponds to that of the untreated control, while an efficacy of 100% means that no disease is observed.

The subject of series [11] is Puccinia triticina. The experiment in a line: In vivo preventive test on Puccinia triticina (wheat). As to conditions: 500 ppm of active ingredient, evaluated 8 days after inoculation. How it is done: as §2, with “Puccinia triticina.” for “Septoria tritici.”, “approximately” for “approximately 100% and afterwards for 60 hours at approximately 15° C. in a translucent incubation cabinet at a relative atmospheric humidity of approximately”, “20°” for “15°”, “8” for “21”

Series [12] deals with Leptosphaeria nodorum. Kind of series: In vivo preventive test on Leptosphaeria nodorum (wheat). Conditions: 500 ppm of active ingredient, evaluated 8 days after inoculation. How it is done: as §2, with “Leptosphaeria nodorum.” for “Septoria tritici.”, “approximately” for “approximately 100% and afterwards for 60 hours at approximately 15° C. in a translucent incubation cabinet at a relative atmospheric humidity of approximately”, “22°” for “15°”, “8” for “21”

As for `CCc1nn(C)c(F)c1C(=O)N1CCCCC1c1cc(OC)cc(OC)c1` (stereo not drawn) [Example 67], in series [1], the logP (commonly the decadic logarithm of the partition coefficient of the neutral form, usually between octanol and water) worked out at 2.84. For the same compound, the Efficacy in series [2] stood at 95%; in series [3], 90%; in series [4], 90%; in [5], 100%; in series [6], 95%.
With `Cc1ccccc1C1CCCCN1C(=O)c1c(C)nn(C)c1F` (stereo not drawn) [Example 1, (5-fluoro-1,3-dimethyl-1H-pyrazol-4-yl)[2-(2-methylphenyl)-piperidin-1-yl]methanone], in series [1] (reversed-phase HPLC column (C 18)), the chromatographic logP (commonly a lipophilicity value derived from retention on a column) is 2.71. In addition, the Efficacy worked out at 100% in series [2]; 100% in series [4]; 99% in series [5]; 100% in series [7]; 95% in [8]; 89% in series [9]. This compound came in with an Efficacy in [6] of 95%.
`Cc1nn(C)c(F)c1C(=O)N1CCCCC1c1cccc(Br)c1` (stereo not drawn) [Example 95] registered a logP in series [1] of 3.06. Moreover, the Efficacy stood at 95% in [4]; 100% in [7]; 100% in series [10]; 91% in series [8]; 100% in series [9]; 71% in [11]. The Efficacy in series [12] is 89%; in series [6], 100%.
Turning to `Cc1cc(C(=O)N2CCCCC2c2ccc(Cl)cc2)c(C)o1` (stereo not drawn) [Example 53], the logP in [1] is 4.04. Further, the Efficacy in series [4] was determined as 95%; in series [7] it was 90%; in series [10] it was 100%; in [9], 70%; in [11], 71%; in series [12], 78%. For the same compound, in [6], the Efficacy is on record as 90%.
For `Cc1cc(C)cc(C2CCCCN2C(=O)c2c(C(F)F)nn(C)c2F)c1` (stereo not drawn) [Example 30], in series [1], the logP turned out to be 3.71. For the same compound, the Efficacy in series [4], in series [5], in [7], in series [10], in [8] and in series [9] was 100% each time. For the same compound, the Efficacy in series [11] was 100%; in series [12] it was 90%.
In [1], `CCC(c1ccccc1Cl)C1CCCCN1C(=S)c1c(C(F)F)nn(C)c1F` (stereo not drawn) [Example 165] had a logP of 4.95. In addition, the Efficacy turned out to be 73% in series [2]; 100% in series [4]; 99% in series [5]; 100% in [8]; 90% in [6].
In turn, `CCc1nn(C)c(F)c1C(=O)N1CCCCC1c1ccccc1C` (stereo not drawn) [Example 4] had a logP in series [1] of 3.06. In addition, the Efficacy in series [4] is recorded as 100%; in series [7], 100%; in series [8], 95%; in series [9], 78%; in series [6], 95%.
In the case of `CCC(c1ccccc1Cl)C1CCCCN1C(=O)c1c(C(F)F)nn(C)c1F` (stereo not drawn) [Example 162], the log partition coefficient (logP) in series [1] was determined as 4.13. In addition, the Efficacy is 100% in series [4]; 100% in series [7]; 100% in series [8]; 94% in series [9]; 100% in series [11]; 90% in [12]. Besides, the Efficacy in [6] is listed as 100%.

The values are drawn from patent US9545105B2, “1-(heterocyclic carbonyl) piperidines” (BAYER INTELLECTUAL PROPERTY GMBH, priority 2010, dated 2017).
